From publication PMC6556873, “Rapid Covalent-Probe Discovery by Electrophile-Fragment Screening” (Journal of the American Chemical Society, 2019)
Like-named read-outs stand apart in the source and are kept apart here.

Legend:
[1] = in vitro; set-up: species or system HB2, CCD841; conditions: human, hek293 cells
[2] = in vitro; set-up: species or system CCD841, HEK293; conditions: human, hb2 cells, read-out: HB-2 Cells Viability (%)
[3] = in vitro; set-up: species or system HB2, HEK293; conditions: human, ccd841 cells
[4] = target: T1, BSA (Bos taurus, UniProt P02769); set-up: Intact protein LC/MS covalent labelling, fragments in pools of five, 200 uM each, 4 °C; conditions: 24 h, 4 °C, pool of five; 200 µM; covalent
T1 construct: gene ALB
T1 sequence (P02769 whole entry, the tested form may be a part): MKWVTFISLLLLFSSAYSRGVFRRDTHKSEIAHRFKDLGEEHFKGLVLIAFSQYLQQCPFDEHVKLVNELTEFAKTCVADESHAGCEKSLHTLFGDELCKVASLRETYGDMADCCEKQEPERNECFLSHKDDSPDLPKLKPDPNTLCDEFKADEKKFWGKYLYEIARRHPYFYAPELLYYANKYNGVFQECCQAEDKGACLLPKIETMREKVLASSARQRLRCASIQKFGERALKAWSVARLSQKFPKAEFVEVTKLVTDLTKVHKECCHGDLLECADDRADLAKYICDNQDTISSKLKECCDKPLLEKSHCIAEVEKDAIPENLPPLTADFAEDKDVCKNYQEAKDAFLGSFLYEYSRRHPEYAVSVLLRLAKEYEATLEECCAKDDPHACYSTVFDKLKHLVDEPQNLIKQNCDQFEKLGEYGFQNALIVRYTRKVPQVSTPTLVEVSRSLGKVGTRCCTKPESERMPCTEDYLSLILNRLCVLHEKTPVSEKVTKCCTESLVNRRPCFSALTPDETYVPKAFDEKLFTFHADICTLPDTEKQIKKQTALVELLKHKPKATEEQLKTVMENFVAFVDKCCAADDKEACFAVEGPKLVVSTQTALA

[5] = target: T2, OTUB2 (OTUB2A) (Homo sapiens, UniProt Q96DC9); set-up: Intact protein LC/MS covalent labelling, fragments in pools of five, 200 uM each, 4 °C; conditions: 24 h, 4 °C, pool of five; 200 µM; covalent
T2 construct: full length residues 1-234, E. coli BL21(DE3)-R3, His tag removed by TEV, construct 27312 Da
T2 sequence (Q96DC9 1-234): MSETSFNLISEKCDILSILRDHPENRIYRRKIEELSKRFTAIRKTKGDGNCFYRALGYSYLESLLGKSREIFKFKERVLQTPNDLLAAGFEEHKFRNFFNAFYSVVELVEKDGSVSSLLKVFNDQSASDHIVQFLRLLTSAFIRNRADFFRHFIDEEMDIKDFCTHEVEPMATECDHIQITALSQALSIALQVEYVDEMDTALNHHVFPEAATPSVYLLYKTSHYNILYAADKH

[6] = target: T3, PCAF (Homo sapiens, UniProt Q92831); set-up: Intact protein LC/MS covalent labelling, fragments in pools of five, 200 uM each, 4 °C; conditions: 24 h, 4 °C, pool of five; 200 µM; covalent
T3 construct: gene KAT2B
T3 sequence (Q92831 whole entry, the tested form may be a part): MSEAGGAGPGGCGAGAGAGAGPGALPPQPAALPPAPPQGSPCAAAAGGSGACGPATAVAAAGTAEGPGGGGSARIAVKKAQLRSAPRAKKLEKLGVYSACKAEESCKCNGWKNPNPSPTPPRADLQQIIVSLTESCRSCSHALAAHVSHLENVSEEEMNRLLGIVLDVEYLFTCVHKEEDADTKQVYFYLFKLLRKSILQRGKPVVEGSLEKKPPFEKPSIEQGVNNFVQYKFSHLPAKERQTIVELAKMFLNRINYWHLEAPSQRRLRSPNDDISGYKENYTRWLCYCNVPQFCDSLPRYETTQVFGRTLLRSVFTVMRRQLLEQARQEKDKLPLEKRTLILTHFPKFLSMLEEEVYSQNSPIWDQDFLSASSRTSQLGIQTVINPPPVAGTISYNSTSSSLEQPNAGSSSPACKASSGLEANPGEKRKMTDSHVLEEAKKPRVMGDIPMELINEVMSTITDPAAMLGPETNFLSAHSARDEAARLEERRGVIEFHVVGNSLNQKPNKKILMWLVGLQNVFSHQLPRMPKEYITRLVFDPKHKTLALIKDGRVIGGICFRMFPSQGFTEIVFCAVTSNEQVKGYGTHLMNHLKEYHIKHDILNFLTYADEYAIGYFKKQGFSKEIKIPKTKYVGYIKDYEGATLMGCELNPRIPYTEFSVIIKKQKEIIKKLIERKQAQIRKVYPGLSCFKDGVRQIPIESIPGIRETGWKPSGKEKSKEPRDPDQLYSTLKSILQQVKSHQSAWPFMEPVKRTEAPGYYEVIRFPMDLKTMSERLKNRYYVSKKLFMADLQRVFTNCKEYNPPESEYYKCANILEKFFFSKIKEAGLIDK

[7] = target: T4, NUDT7 (Homo sapiens, UniProt P0C024); set-up: Intact protein LC/MS covalent labelling, fragments in pools of five, 200 uM each, 4 °C; conditions: 24 h, 4 °C, pool of five; 200 µM; covalent
T4 construct: residues 14-235, E. coli, pNIC28-Bsa4, N-terminal His6 tag removed by TEV, construct 26672 Da
T4 sequence (P0C024 14-235): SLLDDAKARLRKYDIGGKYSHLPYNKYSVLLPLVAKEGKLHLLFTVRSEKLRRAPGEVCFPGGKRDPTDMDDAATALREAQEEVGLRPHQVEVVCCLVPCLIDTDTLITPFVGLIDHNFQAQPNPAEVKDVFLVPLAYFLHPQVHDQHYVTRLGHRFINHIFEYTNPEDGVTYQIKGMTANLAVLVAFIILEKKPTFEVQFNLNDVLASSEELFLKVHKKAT

Structure (SMILES)	viability at 48 h, 10 µM [1]	viability at 48 h, 10 µM [2]	viability at 48 h, 10 µM [3]	BSA [4]	OTUB2 [5]	PCAF [6]	NUDT7 [7]
CC12CCC(CC1=NNC(=O)CCl)C2(C)C (stereo not drawn) [PCM-0102498]	2.2%	25.9%	14.6%	0	0	0	0
O=C(Nc1ccccc1)C1CCN(C(=O)CCl)CC1 [PCM-0102219]	5.6%	5.6%	34.2%	0	0	0	0
N#Cc1c(NC(=O)CCl)sc2c1CCCCC2 [PCM-0102286]	39.9%	44.3%	73.9%	0	0	0	0.33
Cc1ccc(C(C)NC(=O)CCl)cc1C (stereo not drawn) [PCM-0102270]	67.9%	80.2%	78.1%	0	0.51	0	0
O=C(CCl)NC(=O)Nc1ccc(Br)cc1 [PCM-0102308]	71.6%	78.8%	89.9%	0.11	0.1	0	0.17
O=C(CCl)Nc1ccc(OC(F)(F)F)cc1 [PCM-0102276]	9.2%	13.3%	64.9%	0	0.36	0	0.24
O=C(CCl)Nc1cc(F)ccc1C(=O)O [PCM-0102247]	97%	106%	95.7%	0	0	0	0
C=CC(=O)NC1CCN(c2ccc(C(F)(F)F)cn2)CC1 [PCM-0102602]	62.4%	103%	94.7%	0	0	0	0
O=C(CCl)NNC(=O)CC1CCS(=O)(=O)C1 (stereo not drawn) [PCM-0102998]	112%	101%	100%	0	0.69	0	0
CC(C)(C)C(=O)NC(=O)CCl [PCM-0103021]	98.9%	105%	116%	0	0	0	0
O=C(CCl)Nc1nc2ccccc2s1 [PCM-0102698]	65.6%	64.2%	77.5%	0	0.07	0	0.83
COC(=O)c1sccc1NC(=O)CCl [PCM-0102367]	54%	75%	85.5%	0	0	0	0.12
C=CC(=O)N1CCOC2(CCc3ccccc32)C1 (stereo not drawn) [PCM-0102439]	92.3%	99.3%	105%	0	0	0	0
C=CC(=O)N1CCCN(C(=O)C2CCCO2)CC1 (stereo not drawn) [PCM-0102519]	95.5%	98.2%	108%	0	0	0	0
CC1CCC(C#N)(N(C)C(=O)CCl)CC1 (stereo not drawn) [PCM-0102251]	3.9%	16.5%	55.4%	0	0	0	0.05
O=C(CCl)N(C1CCCCC1)C1CCS(=O)(=O)C1 (stereo not drawn) [PCM-0102760]	17.4%	49.7%	31.1%	0	0	0	0.08
COC(=O)c1cccc(NC(=O)CCl)c1O [PCM-0102851]	108%	106%	116%	0	0.23	0	0.1
O=C(CCl)N1CCN(S(=O)(=O)c2ccc(Cl)cc2)CC1 [PCM-0102704]	2.7%	2.5%	18.8%	0	0	0	0.25
C=CC(=O)Nc1cccc(Br)c1 [PCM-0102667]	86.4%	97.1%	89.4%	0	0.18	0	0.08
O=C(CCl)Nc1ccc2c(c1)OC1(CCCCC1)O2 [PCM-0102104]	1.4%	5.9%	62.1%	0	0.47	0	0.08
O=C(CCl)N(c1ccc(F)cc1)C1C=CS(=O)(=O)C1 (stereo not drawn) [PCM-0102868]	6.2%	27.9%	33.4%	0	0	0	0.34
C=CC(=O)NCC1CCCCC1 [PCM-0102766]	79%	97.5%	114%	0	0	0	0.05
O=C(CCl)NCc1cc(F)cc(F)c1 [PCM-0102790]	74.1%	98.6%	71.3%	0	0	0	0
C=CC(=O)N1CCn2c(cc3ccccc32)C1 [PCM-0102621]	85.7%	106%	114%	0	0	0	0
